ChEMBL document CHEMBL5316291 (J Med Chem, 2023)
The source made the active and inactive calls. No cut-off for these calls is given here.

Columns and labels:
[1] = biological target: T1, Protein mono-ADP-ribosyltransferase TIPARP (Homo sapiens) (UniProt Q7Z3E1); assay: Inhibition of human recombinant N-terminal FLAG tagged PARP7 (400 to 657 end residues) at 100 nM incubated for 1 hr by ELISA assay relative to control
T1 sequence (whole entry): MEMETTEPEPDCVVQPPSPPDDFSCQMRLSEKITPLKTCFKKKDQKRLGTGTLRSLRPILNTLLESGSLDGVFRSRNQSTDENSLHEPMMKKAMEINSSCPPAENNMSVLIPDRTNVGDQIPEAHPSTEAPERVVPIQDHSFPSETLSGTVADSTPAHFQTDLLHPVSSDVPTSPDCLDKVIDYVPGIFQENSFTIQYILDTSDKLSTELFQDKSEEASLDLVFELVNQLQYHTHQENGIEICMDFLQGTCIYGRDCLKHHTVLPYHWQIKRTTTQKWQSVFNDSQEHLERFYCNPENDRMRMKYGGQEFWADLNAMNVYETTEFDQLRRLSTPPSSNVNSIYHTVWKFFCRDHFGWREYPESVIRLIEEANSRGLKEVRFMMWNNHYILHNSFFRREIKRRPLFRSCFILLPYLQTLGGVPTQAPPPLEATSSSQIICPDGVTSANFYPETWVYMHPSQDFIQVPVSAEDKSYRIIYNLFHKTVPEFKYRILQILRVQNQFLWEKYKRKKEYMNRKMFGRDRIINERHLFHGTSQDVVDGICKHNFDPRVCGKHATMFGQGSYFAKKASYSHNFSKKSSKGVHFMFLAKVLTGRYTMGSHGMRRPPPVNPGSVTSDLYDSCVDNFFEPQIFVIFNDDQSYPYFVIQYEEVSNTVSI

[2] = AUC(0 to infinity) in ICR mouse at 10 mg/kg, po measured upto 24 hrs by LC-MS/MS analysis; type: ADME, organism-based; parameters: dose 10 mg/kg, time < 24 hrs, route po; settings: in vivo
CT26 [3] = assay: Antitumor activity against mouse CT26 cells implanted in po dosed BALB/c mouse assessed as increase in PARP7 levels at 50 to 100 mg/kg measured after 14 days by RT-qPCR analysis; type: functional, organism-based; settings: dose 50-100 mg/kg, time 14.0 day
[4] = biological target: Poly [ADP-ribose] polymerase 2 (Homo sapiens, UniProt Q9UGN5); assay: Inhibition of human recombinant N-terminal GST-tagged PARP2 (2 to 583 residues) expressed in baculovirus infected Sf9 cells expression system incubated for 1 hr by ELISA assay
[5] = Tmax in ICR mouse at 10 mg/kg, po measured upto 24 hrs by LC-MS/MS analysis; type: ADME, organism-based; settings: in vivo
[6] = biological target: T2, Protein mono-ADP-ribosyltransferase TIPARP (Mus musculus) (UniProt Q8C1B2); assay: Inhibition of PARP7 in mouse CT26 cells assessed as increase in […] levels at 49 to 4000 nmol/L measured after 48 hrs by RT-qPCR analysis; type: cell-based; settings: dose lower […], dose upper 4000.0 nmol/L
T2 sequence (whole entry): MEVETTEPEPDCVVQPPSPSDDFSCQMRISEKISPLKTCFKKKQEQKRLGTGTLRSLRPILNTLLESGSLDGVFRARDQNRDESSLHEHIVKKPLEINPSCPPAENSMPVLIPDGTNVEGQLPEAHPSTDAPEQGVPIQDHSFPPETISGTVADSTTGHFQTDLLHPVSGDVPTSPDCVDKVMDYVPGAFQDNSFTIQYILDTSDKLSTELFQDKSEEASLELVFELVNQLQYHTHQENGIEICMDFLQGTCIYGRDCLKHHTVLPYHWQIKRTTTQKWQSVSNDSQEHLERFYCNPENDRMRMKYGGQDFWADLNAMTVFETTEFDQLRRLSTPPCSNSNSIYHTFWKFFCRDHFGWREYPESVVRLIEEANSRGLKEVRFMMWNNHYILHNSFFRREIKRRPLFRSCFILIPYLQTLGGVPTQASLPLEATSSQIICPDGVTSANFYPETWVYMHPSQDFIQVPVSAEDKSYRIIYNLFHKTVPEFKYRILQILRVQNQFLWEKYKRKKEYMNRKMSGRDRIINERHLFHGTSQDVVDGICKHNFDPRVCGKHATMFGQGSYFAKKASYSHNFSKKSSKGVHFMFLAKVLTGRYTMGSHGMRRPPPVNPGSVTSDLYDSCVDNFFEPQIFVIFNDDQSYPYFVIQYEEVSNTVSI

[7] = Half life in ICR mouse at 10 mg/kg, po measured upto 24 hrs by LC-MS/MS analysis; type: ADME, organism-based; settings: in vivo
[8] = biological target: T3, Protein mono-ADP-ribosyltransferase TIPARP (Homo sapiens, UniProt Q7Z3E1); assay: Inhibition of human recombinant N-terminal FLAG tagged PARP7 (400 to 657 end residues) incubated for 1 hr by ELISA assay
T3 sequence (Q7Z3E1 whole entry): T1 sequence (whole entry)

[9] = Toxicity in BALB/c mouse implanted with mouse CT26 cells assessed as lung damage at 100 mg/kg, po measured for 14 days by hematoxylin and eosin staining based fluorescence microscopic analysis; type: organism-based; settings: in vivo, 336 h, time 14 day
[10] = biological target: Voltage-gated inwardly rectifying potassium channel KCNH2 (Homo sapiens, UniProt Q12809); assay: Inhibition of hERG; type: toxicity
NCI-H1373 = assay: cells; settings: Homo sapiens, NCI-H1373, 144 h
CT26 [11] = assay: Antitumor activity against mouse CT26 cells implanted in po dosed BALB/c mouse assessed as increase in IFN-beta levels at 100 mg/kg measured after 14 days by RT-qPCR analysis; type: functional, organism-based; settings: time 14.0 day
[12] = Toxicity in BALB/c mouse implanted with mouse CT26 cells assessed as liver damage at 100 mg/kg, po measured for 14 days by hematoxylin and eosin staining based fluorescence microscopic analysis; type: organism-based; settings: in vivo, 336 h, time 14 day
[13] = biological target: T4, Protein mono-ADP-ribosyltransferase PARP11 (Homo sapiens, UniProt Q9NR21); assay: Inhibition of human recombinant N-terminal GST-tagged / C-terminal His-tagged PARP11 (8 to 338 end residues) expressed in baculovirus infected Sf9 cells expression system incubated for 1 hr by ELISA assay
T4 sequence (Q9NR21 whole entry): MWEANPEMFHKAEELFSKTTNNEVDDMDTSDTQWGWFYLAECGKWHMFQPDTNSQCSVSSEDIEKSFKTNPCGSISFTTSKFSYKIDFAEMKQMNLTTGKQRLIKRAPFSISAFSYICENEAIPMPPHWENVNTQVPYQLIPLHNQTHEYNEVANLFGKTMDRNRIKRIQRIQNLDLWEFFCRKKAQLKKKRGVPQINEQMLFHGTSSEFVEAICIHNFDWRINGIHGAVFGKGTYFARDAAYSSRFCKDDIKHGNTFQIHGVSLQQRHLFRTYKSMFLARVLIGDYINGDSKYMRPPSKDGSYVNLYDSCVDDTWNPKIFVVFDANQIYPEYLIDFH

[14] = Toxicity in BALB/c mouse implanted with mouse CT26 cells assessed as kidney damage at 100 mg/kg, po measured for 14 days by hematoxylin and eosin staining based fluorescence microscopic analysis; type: organism-based; settings: in vivo, 336 h, time 14 day
[15] = MRT(0 to infinity) in ICR mouse at 10 mg/kg, po measured upto 24 hrs by LC-MS/MS analysis; type: ADME, organism-based; settings: in vivo

Chain of Poly [ADP-ribose] polymerase 2 (Q9UGN5 whole entry, the tested form may be a part): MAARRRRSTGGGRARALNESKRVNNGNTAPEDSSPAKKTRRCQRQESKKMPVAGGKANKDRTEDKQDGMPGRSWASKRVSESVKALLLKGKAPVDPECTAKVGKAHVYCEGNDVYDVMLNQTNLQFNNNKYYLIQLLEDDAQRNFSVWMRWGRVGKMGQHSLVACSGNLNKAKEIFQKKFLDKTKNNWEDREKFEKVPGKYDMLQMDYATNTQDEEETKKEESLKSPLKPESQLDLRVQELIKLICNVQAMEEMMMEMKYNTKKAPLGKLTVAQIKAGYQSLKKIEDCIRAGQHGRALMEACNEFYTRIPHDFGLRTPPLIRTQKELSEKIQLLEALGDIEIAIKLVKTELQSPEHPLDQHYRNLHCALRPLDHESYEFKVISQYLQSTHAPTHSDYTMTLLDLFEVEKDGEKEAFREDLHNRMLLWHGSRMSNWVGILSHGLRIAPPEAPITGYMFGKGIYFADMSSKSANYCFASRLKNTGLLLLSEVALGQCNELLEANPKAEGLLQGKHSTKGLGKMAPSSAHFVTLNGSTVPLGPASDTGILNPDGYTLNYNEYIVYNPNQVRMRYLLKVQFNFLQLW
Chain of Voltage-gated inwardly rectifying potassium channel KCNH2 (Q12809 whole entry): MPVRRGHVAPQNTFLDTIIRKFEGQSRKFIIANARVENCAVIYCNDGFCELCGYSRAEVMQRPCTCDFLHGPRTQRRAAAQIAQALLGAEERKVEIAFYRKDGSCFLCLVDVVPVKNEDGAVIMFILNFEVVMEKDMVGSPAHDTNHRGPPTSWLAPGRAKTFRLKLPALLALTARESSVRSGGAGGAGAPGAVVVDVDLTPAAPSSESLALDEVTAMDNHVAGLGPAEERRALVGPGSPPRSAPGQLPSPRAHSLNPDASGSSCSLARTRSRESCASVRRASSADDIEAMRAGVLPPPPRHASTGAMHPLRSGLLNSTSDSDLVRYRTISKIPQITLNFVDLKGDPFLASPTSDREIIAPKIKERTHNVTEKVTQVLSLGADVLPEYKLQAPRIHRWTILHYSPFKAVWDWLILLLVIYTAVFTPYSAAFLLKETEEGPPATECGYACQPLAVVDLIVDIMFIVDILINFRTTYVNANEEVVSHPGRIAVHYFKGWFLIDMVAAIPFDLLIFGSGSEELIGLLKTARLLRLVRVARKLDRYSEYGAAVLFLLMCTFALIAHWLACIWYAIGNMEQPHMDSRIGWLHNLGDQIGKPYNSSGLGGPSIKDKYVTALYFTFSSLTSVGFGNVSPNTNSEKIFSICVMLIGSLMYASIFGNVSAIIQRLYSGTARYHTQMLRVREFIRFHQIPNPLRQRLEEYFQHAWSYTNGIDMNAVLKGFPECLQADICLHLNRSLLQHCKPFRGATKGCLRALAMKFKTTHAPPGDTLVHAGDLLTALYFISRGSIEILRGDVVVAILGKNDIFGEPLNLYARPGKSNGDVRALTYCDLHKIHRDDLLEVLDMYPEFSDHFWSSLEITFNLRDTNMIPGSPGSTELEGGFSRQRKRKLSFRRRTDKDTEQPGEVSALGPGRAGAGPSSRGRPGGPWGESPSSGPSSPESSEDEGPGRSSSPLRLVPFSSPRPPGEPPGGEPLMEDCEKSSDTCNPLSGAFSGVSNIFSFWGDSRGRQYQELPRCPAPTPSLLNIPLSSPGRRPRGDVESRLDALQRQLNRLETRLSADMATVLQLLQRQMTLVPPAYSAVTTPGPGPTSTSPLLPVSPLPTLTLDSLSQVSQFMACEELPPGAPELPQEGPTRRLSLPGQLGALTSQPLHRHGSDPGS

inhibition [1]: 70.5% | AUC [2]: 5663.5 ng·h/mL | IC50 [4]: 546 nM | Tmax [5]: 0.58 h | inhibition [6]: Active | t1/2 [7]: 1.74 h | IC50 [8]: 7.6 nM | IC50 (NCI-H1373): 1090 nM | IC50 [13]: 32200 nM | MRT inf [15]: 1.97 h
SMILES: C[C@@H](CN1CC(C(=O)N2CCN(c3ncc(C(F)(F)F)cn3)CC2)C1)Nc1cn[nH]c(=O)c1C(F)(F)F
Activity (CT26 [3]): inactive | Activity [9]: Non-Toxic | inhibition (INH) [10]: Not Active | Activity (CT26 [11]): Active | Activity [12]: Non-Toxic | Activity [14]: Non-Toxic
